The molecules below were run against T1, full-length human PKCι (Homo sapiens, UniProt P41743) (assay: PKCι IC50 IMAP fluorescence polarisation assay, full-length enzyme, 150 μM ATP). Conditions: read-out: IC50 in IMAP assay against full length PKCi at 150 μM ATP.
T1 construct: Recombinant, full-length human PKCι expressed in Sf21 insect cells is also commercially available; purchased EMD Millipore; host or cells: Sf21 insect cells (baculovirus)
T1 sequence (P41743 1-596): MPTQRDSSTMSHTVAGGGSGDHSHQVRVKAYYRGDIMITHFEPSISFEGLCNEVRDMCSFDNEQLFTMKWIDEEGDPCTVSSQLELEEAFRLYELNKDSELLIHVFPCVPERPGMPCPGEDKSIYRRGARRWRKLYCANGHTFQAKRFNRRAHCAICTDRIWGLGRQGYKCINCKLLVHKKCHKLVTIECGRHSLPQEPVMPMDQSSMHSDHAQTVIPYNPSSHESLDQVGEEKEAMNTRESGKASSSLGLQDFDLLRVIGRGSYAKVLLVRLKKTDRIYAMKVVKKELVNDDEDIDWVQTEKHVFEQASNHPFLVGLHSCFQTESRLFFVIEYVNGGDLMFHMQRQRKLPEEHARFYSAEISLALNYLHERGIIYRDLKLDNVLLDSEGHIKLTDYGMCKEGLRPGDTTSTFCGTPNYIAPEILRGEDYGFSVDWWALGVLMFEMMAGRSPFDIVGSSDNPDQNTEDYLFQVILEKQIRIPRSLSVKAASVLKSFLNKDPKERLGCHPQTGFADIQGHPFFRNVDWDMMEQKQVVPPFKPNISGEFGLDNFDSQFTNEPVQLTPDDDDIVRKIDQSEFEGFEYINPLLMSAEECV
Type: biochemical
In short: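 IMAP fluorescence polarisation kinase assay: 15 pM baculovirus-expressed human PKCiota with 100 nM FAM-pseudosubstrate peptide and 150 μM ATP, 1 h at 25 °C. IMAP detection reagent then 2 h at 25 °C before FP measurement. Inhibition referenced to no-compound and no-enzyme controls for IC50 fitting.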

Row | Structure (SMILES) | IC50
1 | N[C@H]1C[C@H](Nc2nc(-c3ccnc4[nH]c5ccccc5c34)nc3cncc(C4CCC4)c23)C1 [Example 11, trans-N-[5-Cyclobutyl-2-(9H-pyrido[2,3-b]indol-4-yl)-pyrido[3,4-d]pyrimidin-4-yl]-cyclobutane-1,3-diamine] | < 100 nM
2 | CC1(c2cc3c(-c4nc(N[C@H]5CC[C@H](N)CC5)c5c(C6CC6)cncc5n4)ccnc3[nH]2)CC1(F)F (stereo partly drawn) [Example 12, trans-N-{5-Cyclopropyl-2-[2-(2,2 difluoro-1-methyl-cyclopropyl)-1H-pyrrolo[2,3-b]pyridin-4-yl]-pyrido[3,4-d]pyrimidin-4-yl}-cyclohexane-1,4-diamine] | < 100 nM
3 | OC1(c2cc3c(-c4nc(N5CCNCC5)c5c(C6CCC6)cncc5n4)ccnc3[nH]2)CCSC1 (stereo not drawn) [Example 13, 3-[4-(5-Cyclobutyl-4-piperazin-1-yl-pyrido[3,4-d]pyrimidin-2-yl)-1H-pyrrolo[2,3-b]pyridin-2-yl]-tetrahydro-thiophen-3-ol] | < 100 nM
4 | c1ccc(Sc2cc3c(-c4nc(N5CCNCC5)c5c(C6CC6)cncc5n4)ccnc3[nH]2)cc1 [Example 14, 5-Cyclopropyl-2-(2-phenylsulfanyl-1H-pyrrolo[2,3-b]pyridin-4-yl)-4-piperdzin-1-yl-pyrido[3,4-d] pyrimidine] | < 100 nM
5 | CN(c1nc(-c2ccnc3[nH]c(Sc4ccccc4)cc23)nc2cncc(C3CC3)c12)C1CCNCC1 [Example 15, [5-Cyclopropyl-2-(2-phenylsulfanyl-1H-pyrrolo[2,3-b]pyridin-4-yl)-pyrido[3,4-d]pyrimidin-4-yl]-methyl-piperidin-4-yl amine] | < 100 nM
6 | CSc1cc2c(-c3nc(N4CCNCC4)c4c(C5CC5)cncc4n3)ccnc2[nH]1 [Example 16, 5-Cyclopropyl-2-(2-methylsulfanyl-1H-pyrrolo[2,3-b]pyridin-4-yl)-4-piperazin-1-yl pyrido[3,4-d]pyrimidine] | < 100 nM
7 | CSc1cc2c(-c3nc(N4CCNCC4)c4c(C5CCC5)cncc4n3)ccnc2[nH]1 [Example 17, 5-Cyclobutyl-2-(2-methylsulfanyl-1H-pyrrolo[2,3-b]pyridin-4-yl)-4-piperazin-1-yl pyrido[3,4-d] pyrimidine] | < 100 nM
8 | Clc1ccc(-c2cc3c(-c4nc(N5CCNCC5)c5c(C6CC6)cncc5n4)ccnc3[nH]2)c(Cl)c1 [Example 18, 5-Cyclopropyl-2-[2-(2,4-dichloro-phenyl)-1H-pyrrolo[2,3-b]pyridin-4-yl]-4-piperazin-1-yl-pyrido[3,4-d] pyrimidine] | < 100 nM
9 | FC(F)(F)c1cc2c(-c3nc(N4CC[C@H]5CNC[C@H]54)c4c(C5CC5)cncc4n3)ccnc2[nH]1 [Example 20, 5-Cyclopropyl-4-(3aS,6aS)-hexahydro-pyrrolo[3,4-b]pyrrol-1-yl-2-(2-trifluoromethyl-1H-pyrrolo[2,3-b]pyridin-4-yl)-pyrido[3,4-d]pyrimidine] | < 100 nM
10 | FC(F)(F)c1cc2c(-c3nc(N4CC[C@@H]5CNC[C@@H]54)c4c(C5CC5)cncc4n3)ccnc2[nH]1 [Example 21, 5-Cyclopropyl-4-(3aR,6aR)-hexahydro-pyrrolo[3,4-b]pyrrol-1-yl-2-(2-trifluoromethyl-1H-pyrrolo[2,3-b]pyridin-4-yl)-pyrido[3,4-d]pyrimidine] | < 100 nM
11 | c1ccc2c(c1)[nH]c1nccc(-c3nc(NC4CCCNCC4)c4c(C5CCC5)cncc4n3)c12 (stereo not drawn) [Example 22, Azepan-4-yl-[5-cyclobutyl-2-(9H-pyrido[2,3-b]indol-4-yl)-pyrido[3,4-d]pyrimidin-4-yl]-amine] | < 100 nM
12 | COc1ccccc1-c1cc2c(-c3nc(N(C)C4CCNCC4(C)C)c4c(C5CC5)cncc4n3)ccnc2[nH]1 (stereo not drawn) [Example 23, {5-Cyclopropyl-2-[2-(2-methoxy-phenyl)-1H-pyrrolo[2,3-b]pyridin-4-yl]-pyrido[3,4-d]pyrimidin-4-yl}-(3,3-dimethyl-piperidin-4-yl)-methyl-amine] | < 100 nM
13 | CN(c1nc(-c2ccnc3[nH]c(-c4ccc(Cl)cc4Cl)cc23)nc2cncc(C3CC3)c12)C1CCNCC1(C)C (stereo not drawn) [Example 24, {5-Cyclopropyl-2-[2-(2,4-dichloro-phenyl)-1H-pyrrolo[2,3-b]pyridin-4-yl]-pyrido[3,4-d]pyrimidin-4-yl}-(3,3-dimethyl-piperidin-4-yl)-methyl-amine] | < 100 nM
14 | Clc1ccccc1-c1cc2c(-c3nc(N[C@H]4[C@@H]5CC[C@H]4CNC5)c4c(C5CC5)cncc4n3)ccnc2[nH]1 [Example 25, (1R,5S,8R)-3-Aza-bicyclo[3.2.1]oct-8-yl-{2-[2-(2-chloro-phenyl)-1H-pyrrolo[2,3-b]pyridin-4-yl]-5-cyclopropyl-pyrido[3,4-d]pyrimidin-4-yl}-amine] | 100 to 1000 nM
15 | Clc1ccccc1-c1cc2c(-c3nc(N[C@@H]4[C@@H]5CC[C@H]4CNC5)c4c(C5CC5)cncc4n3)ccnc2[nH]1 [Example 26, (1R,5S,8S)-3-Aza-bicyclo[3.2.1]oct-8-yl-{2-[2-(2-chloro-phenyl)-1H-pyrrolo[2,3-b]pyridin-4-yl]-5-cyclopropyl-pyrido[3,4-d]pyrimidin-4-yl}-amine] | 100 to 1000 nM
16 | CN(c1nc(-c2ccnc3[nH]c(Sc4ccccc4)cc23)nc2cncc(C3CCC3)c12)C1CCNCC1 [Example 28, [5-Cyclobutyl-2-(2-phenylsulfanyl-1H-pyrrolo[2,3-b]pyridin-4-yl)-pyrido[3,4-d]pyrimidin-4-yl]-methyl-piperidin-4-yl-amine] | < 100 nM
17 | CN(c1nc(-c2ccnc3[nH]c(Sc4ccccc4)cc23)nc2cncc(C3CC3)c12)C1CCNCC1(C)C (stereo not drawn) [Example 29, [5-Cyclopropyl-2-(2-phenylsulfanyl-1H-pyrrolo[2,3-b]pyridin-4-yl)-pyrido[3,4-d]pyrimidin-4-yl]-(3,3-dimethyl-piperidin-4-yl)-methyl-amine] | < 100 nM
18 | COc1nc(-c2ccnc3[nH]c4ccccc4c23)nc2cncc(C3CCC3)c12 [Example 30, 4-(5-Cyclobutyl-4-methoxy-pyrido[3,4-d]pyrimidin-2-yl)-9H-pyrido[2,3-b]indole] | 10000 to 40000 nM
19 | CN(c1nc(-c2ccnc3[nH]c4ccccc4c23)nc2cncc(C3CCC3)c12)C1CCNCC1(C)C (stereo not drawn) [Example 31, [5-Cyclobutyl-2-(9H-pyrido[2,3-b]indol-4-yl)-pyrido[3,4-d]pyrimidin-4-yl]-(3,3-dimethyl-piperidin-4-yl)-methyl-amine] | < 100 nM
20 | CN(c1nc(-c2ccnc3[nH]c(-c4csc(C(C)(C)C)n4)cc23)nc2cncc(C3CC3)c12)C1CCNCC1(C)C (stereo not drawn) [Example 32, {2-[2-(2-tert-Butyl-thiazol-4-yl)-1H-pyrrolo[2,3-b]pyridin-4-yl]-5-cyclopropyl-pyrido[3,4-d]pyrimidin-4-yl}-(3,3-dimethyl-piperidin-4-yl)-methyl-amine] | < 100 nM
21 | c1ccc2c(c1)[nH]c1nccc(-c3nc(N[C@H]4[C@@H]5CNC[C@@H]54)c4c(C5CCC5)cncc4n3)c12 [Example 33, (2R,6S)-3-Aza-bicyclo[3.1.0]hex-6-yl-[(S)-5-cyclobutyl-2-(9H-pyrido[2,3-b]indol-4-yl)-pyrido[3,4-d]pyrimidin-4-yl]-amine] | < 100 nM
22 | CC1(C)CNCCC1Nc1nc(-c2ccnc(Nc3cc4ccccn4n3)c2)nc2cncc(C3CC3)c12 (stereo not drawn) [Example 35, {5-Cyclopropyl-2-[2-(pyrazolo[1,5-a]pyridin-2-ylamino)-pyridin-4-yl]-pyrido[3,4-d]pyrimidin-4-yl}-(3,3-dimethyl-piperidin-4-yl)-amine] | < 100 nM
23 | CN(c1nc(-c2ccnc(Nc3cc4ccccn4n3)c2)nc2cncc(C3CC3)c12)C1CCNCC1(C)C (stereo not drawn) [Example 36, {5-Cyclopropyl-2-[2-(pyrazolo[1,5-a]pyridin-2-ylamino)-pyridin-4-yl]-pyrido[3,4-d]pyrimidin-4-yl}-(3,3-dimethyl-piperidin-4-yl)-methyl-amine] | < 100 nM
24 | c1cc(-c2nc(N3CCNCC3)c3c(C4CC4)cncc3n2)cc(Nc2nc(C3CC3)cs2)n1 [Example 37, [4-(5-Cyclopropyl-4 piperazin-1-yl-pyrido[3,4-d]pyrimidin-2-yl)-pyridin-2-yl]-(4-cyclopropyl-thiazol-2-yl)-amine] | < 100 nM
25 | c1cc(-c2nc(N3CCNCC3)c3c(C4CCC4)cncc3n2)cc(Nc2nc(C3CC3)cs2)n1 [Example 38, [4-(5-Cyclobutyl-4-piperazin-1-yl-pyrido[3,4-d]pyrimidin-2-yl)-pyridin-2-yl]-(4-cyclopropyl-thiazol-2-yl)-amine] | < 100 nM
26 | CC1(C)CNCCC1Nc1nc(-c2ccnc(Nc3nc(C4CC4)cs3)c2)nc2cncc(C3CC3)c12 (stereo not drawn) [Example 39, {5-Cyclopropyl-2-[2-(4-cyclopropyl-thiazol-2-ylamino)-pyridin-4-yl]-pyrido[3,4-d]pyrimidin-4-yl}-(3,3-dimethyl-piperidin-4-yl)-amine] | 100 to 1000 nM
27 | Fc1ccc(-c2cc3c(-c4nc(N5CCNCC5)c5c(C6CC6)cncc5n4)ccnc3[nH]2)c(F)n1 [Example 40, 5-Cyclopropyl-2-[2-(2,6-difluoro-pyridin-3-yl)-1H-pyrrolo[2,3-b]pyridin-4-yl]-4-piperazin-1-yl-pyrido[3,4-d]pyrimidine] | < 100 nM

Reference: patent US10414763B2 (CANCER RESEARCH TECHNOLOGY LIMITED, priority 2014, dated 2019)
